The numbers were not newly measured in patent publication US10265268B2, “External composition for screen foamers” (POLA PHARMA INC., priority 2014, dated 2019), which cites them from elsewhere.

For this data set the following is noted: surfactants from NIKKOL / suitable examples.

With Polyoxyethylene (20) behenyl ether, the HLB is listed as 16.5.
For the compound `CCCCCCCCCCCCCCCCCC(=O)OCC(O)CO` (centres unmarked) [Glyceryl monostearate], the HLB is 4.0.
On to “Polyoxyethylene (20) polyoxypropylene (8) cetyl ether”, for which the HLB is on record as 12.5.
Consider Polyoxyethylene (10) cetyl ether, for which the HLB is given as 13.5.
“Polyethylene glycol monostearate (40 E.O.)”: the HLB is on record as 17.5.
